According to patent US4254128A, “2-Adamantyl hydrazines and biocidal compositions thereof” (Teva Pharmaceutical Industries Ltd., priority 1977, dated 1981):
Counter-ions that a name gives are not always drawn.

Assays:
[1] = tested on: Leptospira canicola Kipod 146; experiment: Anti leptospiral activity (minimal inhibition concentration); type: cell-based; conditions: for MIC: Leptospira interrogans, KIPOD146, 240 h; for anti leptospiral activity: summary in words
Experimental: The tests were carried out under the following conditions:
Leptospira: Leptospira canicola Kipod 146
Inoculum: 1-10^5 cells/ml
Incubation time: 10 days, 28° C.
Evaluation: Direct count in dark field microscopy after 4,7 and 10 days.
2 Minimal+0.5% albumin (Pentex)
3 Korthof rich medium with 8% serum.
4 Korthof rich medium with 2% serum.

[2] = tested on: L. tropica amastigotes; experiment: Anti leishmania test, amastigotes in peritoneal exudate cells in vitro; type: cell-based; conditions: 37° C.
Experimental: (§1) a. amastigotes in peritoneal exudate cells in Mc Coy's medium in vitro at 37° C.
+++=clearance of all parasites in 24 hours
++=clearance of all parasites in 48 hours
+=clearance of all parasites in 72 hours
±=Partial clearance of parasites in 72 hours or more
-=No activity against parasites.

[3] = tested on: Leishmania; experiment: Anti leishmania tests, summary; type: cell-based, L. tropica; conditions: summary in words
Experimental: as §1
b. promastigotes in Mc Coy's medium in vitro at 27° C.

[4] = tested on: Pythium; experiment: Antifungal activity in plants, growth on solid agar; type: cell-based; conditions: read-out: inhibiting concentration
Experimental: (§2) Antiplant fungal activity was tested as follows:
(§3) Inhibition of growth on solid agar mixed with various concentrations of the tested compounds.

[5] = tested on: S. rolfsii; experiment: as above; type: cell-based; conditions: Agroathelia rolfsii, read-out: inhibiting concentration
Experimental: as §2, §3

[6] = tested on: Sclerotinia; experiment: as above; type: cell-based; conditions: read-out: inhibiting concentration
Experimental: as §2, §3

Row | Structure (SMILES) | MIC ([1]; Korthof + 2% serum) [µg/mL] | MIC ([1]; Korthof + 8% serum) [µg/mL] | MIC ([1]; minimal + Pentex (0.5% albumin)) [µg/mL] | MIC ([1]; minimal medium) [µg/mL] | anti leptospiral activity [1] | Leishmania amastigote activity score ([2]; 10 μg) | Leishmania amastigote activity score ([2]; 100 μg) | activity against Leishmania [3] | MIC [4] [µg/mL] | MIC [5] [µg/mL] | MIC [6] [µg/mL]
1 | NNC1C2CC3CC(C2)CC1C3 (centres unmarked) [Example 18, 2-Adamantylhydrazine hydrochloride] | 12.5 | 125 | 6.25 | 3.12 | active | ++ (clearance of all parasites in 48 hours) | +++ (clearance of all parasites in 24 hours) | active | 50 | 50 | 50
2 | CN(NC1C2CC3CC(C2)CC1C3)c1cccc(C(F)(F)F)c1 (centres unmarked) [Example 29, 1-(2'-Adamantyl)-2-methyl-2-(m-trifluoromethylphenyl)hydrazine hydrochloride hemihydrate] |  | 6.25 |  | 6.25 | active |  |  |  | 50 | 50 | 50
